Test results reported in patent publication US9662329B2, “Use of survivin antagonists in polyomavirus-related disease” (University of Pittsburgh—Of the Commonwealth System of …, priority 2012, dated 2017).

Assays:
[1] = test system: MKL-2 xenografts; assay: MKL-2 xenograft drug treatment; assay type: in vivo, NSG mice; conditions: continuously at 4 mg/kg
Protocol: Cells of Merkel cell polyomavirus (+) carcinoma cell lines MKL-1, MS-1, WaGa, and MKL-2 were checked for viability >90% by trypan blue staining, resuspended in PBS (2×10^7 cells in 100 μl) and inoculated subcutaneously into the right flank of mice.

[2] = test system: MKL-1 cells; assay: Cell death evaluation by CFDA and PI staining; assay type: cell-based, human; conditions: 100 nM
Protocol: Upon harvesting cells are resuspended in 2 ml of PBS containing 4 μg/ml PI (propidium iodide, Sigma) and 10 μM Carboxy fluorescin diacetate (CFDA, Invitrogen) at room temperature for 10 mins. Cells were then rinsed in 1× PBS and then examined under the microscope. Quantitation was done using ImageJ software.

[3] = test system: MCV-negative MCC13, BJ and BJhTERT cells; assay: Cell-Titer Glo growth curves for YM155; assay type: cell-based, human; conditions: 48 h
From the text: (§1) Seven Merkel cell carcinoma cell lines: MKL-1, MKL-2, MS-1, UISO, MCC13, MCC26 and WaGa (kind gift of Jurgen Becker (Houben et al., Merkel cell polyomavirus-infected Merkel cell carcinoma cells require expression of viral T antigens. J Virol 84, 7064 (July, 2010); Ronan et al., Merkel cell carcinoma: in vitro and in vivo characteristics of a new cell line. J Am Acad Dermatol 29, 715 (November, 1993); Rosen et al., Establishment and characterization of a neuroendocrine skin carcinoma cell line. Lab Invest 56, 302 (March, 1987)); NCI-H69 small cell lung cancer cell line (ATCC); 293 human embryonic kidney cells (ATCC); U2OS osteosarcoma cell line (kind gift of Ole Gjoerup); BJhTERT immortalized foreskin fibroblast cell line (kind gift of Ole Gjoerup); and BJ primary foreskin fibroblasts (ATCC) were used to screen and evaluate the small molecules examined in this study (Houben et al., J Virol 84, 7064 (July, 2010); Ronan et al., J Am Acad Dermatol 29, 715 (November, 1993); Rosen et al., Lab Invest 56, 302 (March, 1987)). […]
(§2) Serial drug dilutions from 10^−4 M to 10^−9 M were used on MCC and non-MCC cell lines. […] Cell viability was then measured using Cell Titer Glo (Promega) kit following manufacturer's instructions as described previously. […] EC50 doses for the drugs were calculated using a four parameter logistic equation (GraphPad Prism).

[4] = test system: MCV-negative UISO and MCC26; assay: Cell-Titer Glo growth curves for YM155; assay type: cell-based, human; conditions: 48 h
From the text: as §1, §2

[5] = test system: MS-1 (MCV-positive) and UISO (MCV-negative) cell xenografts; assay: MS-1 and UISO xenograft drug treatment; assay type: in vivo, NSG mice; conditions: end of three week treatment period; MS-1 and UISO xenografts
Protocol: MCC cells were checked for viability >90% by trypan blue staining, resuspended in PBS (2×10^7 cells in 100 μl) and inoculated subcutaneously into the right flank of mice.
All treatments were delivered for three consecutive weeks. […] YM-155 (2 mg/kg) was given intraperitoneally on five consecutive days, followed by a two-day treatment free interval.

[6] = test system: UISO cells; assay: Trypan blue dye exclusion assay; assay type: cell-based, human; conditions: 48 h
Protocol: (§3) Cells were equally seeded and treated with YM155 for 48 hours. To count blue stained dead cells, cells were treated with Accutase (Millipore), collected, resuspended in PBS, mixed with equal volume of Trypan blue (Lonza, 0.4%) and counted using a hemocytometer under the microscope. The counts were done in triplicate and the experiment was repeated three times.

[7] = test system: BJ cells; assay: Trypan blue dye exclusion assay; assay type: cell-based, human; conditions: 48 h
Protocol: as §3

[8] = test system: survivin protein expression in MKL-1 cells; assay: Immunoblotting for survivin; assay type: cell-based, human; conditions: after 12 h treatment
Protocol: Cells were lysed in buffer (RIPA or 10 mM Tris-HCl pH 8.0, 0.6% SDS) containing protease inhibitor cocktail (Roche). Lysates were electrophoresed in 10% SDS-PAGE, transferred to nitrocellulose membrane (Amersham) and reacted with specific antibodies (CM2B4, (1:5000 dilution) (Shuda et al., Human Merkel cell polyomavirus infection I. MCV T antigen expression in Merkel cell carcinoma, lymphoid tissues and lymphoid tumors. Int J Cancer 125, 1243 (Sep. 15, 2009)), cleaved PARP, cleaved caspase3, survivin, XIAP, p53, Bcl-2, Bax (1:1000 dilution, Cell Signalling Technologies), E2F1, cyclin E (1:1000 dilution, Santa Cruz Biotechnology), LC3 (1:1000 dilution, Novus Biologicals) or α-tubulin (1:5000 dilution, Sigma)) overnight at 4° C., followed by anti-mouse (1:5000 dilution, Amersham) or anti-rabbit IgG-HRP conjugates (1:3000 dilution, Cell signaling) for 1 hour at room temperature. Peroxidase activity was detected using Western Lightning plus-ECL reagent (Perkin Elmer). For quantitative immunoblotting, Odyssey Infrared Imaging system (LICOR) was used with IRDye 800-conjugated secondary antibodies (1:5000 dilution, Rockland Immuno chemicals).

[9] = test system: MCV-positive MCC cell lines (MKL-1, MKL-2, MS-1 and WaGa); assay: Cell-Titer Glo growth inhibition by YM155; assay type: cell-based, human; conditions: 48 h
From the text: as §1, §2

COCCn1c2c([n+](Cc3cnccn3)c1C)C(=O)c1ccccc1C2=O.[Br-] [YM155, 1-(2-methoxyethyl)-2-methyl-4,9-dioxo-3-(pyrazin-2-ylmethyl)-4,9-dihydro-1H-naphtho[2,3-d]imidazol-3-ium bromide]
animals surviving, of 10 [1]: three survived more than four months | time to initiation of programmed cell death (PI positive, CFDA negative) [2]: 12 to 24 h | sensitivity to YM155, dose-dependent growth curves [3]: relative resistance | sensitivity to YM155, dose-dependent growth curves [4]: intermediate sensitivity | final tumor volumes, % (median) of saline-treated control mice [5]: 43-55% | cell killing, trypan blue vital dye exclusion [6]: relatively less sensitive | cell killing, trypan blue vital dye exclusion [7]: resistant | survivin protein expression [8]: dose-dependent decrease | sensitivity to YM155, dose-dependent growth curves ([9]; MKL-1, MKL-2, MS-1 and WaGa): sensitive | EC50 ([9]; Homo sapiens, MKL-1, range over MCV-positive MCC cell lines, Cell-Titer Glo, read-out: EC50, inhibiting MCV-positive MCC cell growth in vitro): 1.34 to 12.2 nM
